Here are results for eight molecules from ChEMBL document CHEMBL5465560, “Selectivity Literature for EUbOPEN Chemogenomic Library” (2024).

Experiment [1] has as its target Mitogen-activated protein kinase 11 (Homo sapiens) (UniProt Q15759). Nature of the experiment: Selectivity interaction (ProQinase) EUB0000171b MAPK11.
In experiment [2] the target is Ribosomal protein S6 kinase alpha-3 (Homo sapiens, UniProt P51812). As to conditions: at 10 µM.
Experiment [3] deals with Serine/threonine-protein kinase PAK 4 (Homo sapiens, UniProt O96013). As to conditions: at 10 µM.
Experiment [4] concerns the target Dual specificity mitogen-activated protein kinase kinase 1 (Homo sapiens, UniProt Q02750).
The nature of experiment [5]: Selectivity interaction (Eurofins CEREP Diversity Profile (receptors and ion channels)) EUB0000279b CRH. As to conditions: at 10 µM.
The target of experiment [6] is T1, Mitogen-activated protein kinase kinase kinase 3 (Homo sapiens) (UniProt Q99759).
T1 sequence (whole entry): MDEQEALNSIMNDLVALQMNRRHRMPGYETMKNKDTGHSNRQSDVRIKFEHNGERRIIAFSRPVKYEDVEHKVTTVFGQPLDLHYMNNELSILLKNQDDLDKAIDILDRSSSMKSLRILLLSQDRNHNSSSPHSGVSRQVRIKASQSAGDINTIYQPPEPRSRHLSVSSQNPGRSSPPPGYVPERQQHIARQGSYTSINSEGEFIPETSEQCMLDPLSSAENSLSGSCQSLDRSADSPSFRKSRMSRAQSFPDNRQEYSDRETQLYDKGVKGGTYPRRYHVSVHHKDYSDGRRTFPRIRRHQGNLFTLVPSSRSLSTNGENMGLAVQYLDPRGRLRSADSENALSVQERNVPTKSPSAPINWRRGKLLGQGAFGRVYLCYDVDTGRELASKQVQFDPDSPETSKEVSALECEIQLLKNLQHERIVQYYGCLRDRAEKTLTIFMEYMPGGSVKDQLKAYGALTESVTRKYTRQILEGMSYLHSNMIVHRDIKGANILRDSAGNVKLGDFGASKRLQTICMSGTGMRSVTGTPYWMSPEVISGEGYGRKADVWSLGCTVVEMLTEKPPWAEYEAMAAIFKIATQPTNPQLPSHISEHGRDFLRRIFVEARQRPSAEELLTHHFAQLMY
Nature of the experiment: Selectivity interaction (ActivX KiNativ screen (kinase selectivity in THP-1 cell lysates)) EUB0000639a MAP3K3. It counts as subcellular. As to conditions: lysate, at 1 µM.

Experiment [7] has as its target Death-associated protein kinase 2 (Homo sapiens) (UniProt Q9UIK4). Nature of the experiment: Selectivity interaction (KinomeScan (DiscoverX)) EUB0001619a DAPK2. As to conditions: at 1 µM.
Experiment [8] concerns the target T2, Inhibitor of nuclear factor kappa-B kinase subunit beta (Homo sapiens) (UniProt O14920).
T2 sequence (whole entry): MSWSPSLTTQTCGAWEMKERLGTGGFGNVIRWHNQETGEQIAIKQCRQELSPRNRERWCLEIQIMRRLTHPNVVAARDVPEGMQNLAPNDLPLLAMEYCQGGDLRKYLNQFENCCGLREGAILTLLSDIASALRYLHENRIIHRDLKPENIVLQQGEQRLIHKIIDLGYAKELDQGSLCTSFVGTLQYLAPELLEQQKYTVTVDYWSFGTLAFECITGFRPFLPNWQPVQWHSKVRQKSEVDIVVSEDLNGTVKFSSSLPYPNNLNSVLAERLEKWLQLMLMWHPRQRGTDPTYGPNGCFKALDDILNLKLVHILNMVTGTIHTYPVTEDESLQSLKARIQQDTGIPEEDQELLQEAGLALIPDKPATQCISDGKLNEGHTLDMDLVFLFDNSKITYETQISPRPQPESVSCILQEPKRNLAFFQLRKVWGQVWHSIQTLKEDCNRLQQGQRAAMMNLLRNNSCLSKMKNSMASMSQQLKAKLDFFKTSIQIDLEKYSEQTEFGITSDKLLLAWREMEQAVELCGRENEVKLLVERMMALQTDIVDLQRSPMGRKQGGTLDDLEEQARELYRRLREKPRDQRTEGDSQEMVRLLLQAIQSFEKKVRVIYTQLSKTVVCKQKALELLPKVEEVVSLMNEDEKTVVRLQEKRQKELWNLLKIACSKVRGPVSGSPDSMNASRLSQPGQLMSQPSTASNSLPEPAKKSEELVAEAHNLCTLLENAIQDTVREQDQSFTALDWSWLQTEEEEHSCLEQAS
Nature of the experiment: Selectivity interaction (Kinase panel (literature)) EUB0001199aCl IKBKB. The following applies: at 1 µM.

Mitogen-activated protein kinase 11 (Homo sapiens), sequence (Q15759 whole entry): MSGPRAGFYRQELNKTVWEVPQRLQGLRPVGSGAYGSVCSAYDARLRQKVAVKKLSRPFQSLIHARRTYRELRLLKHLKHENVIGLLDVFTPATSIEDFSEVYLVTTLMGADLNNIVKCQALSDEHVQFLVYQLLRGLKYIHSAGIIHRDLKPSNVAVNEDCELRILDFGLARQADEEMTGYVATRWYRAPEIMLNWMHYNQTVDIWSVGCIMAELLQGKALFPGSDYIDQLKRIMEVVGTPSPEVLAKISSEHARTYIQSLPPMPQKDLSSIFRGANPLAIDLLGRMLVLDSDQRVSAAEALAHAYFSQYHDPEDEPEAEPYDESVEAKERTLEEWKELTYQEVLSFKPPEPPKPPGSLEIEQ
Ribosomal protein S6 kinase alpha-3, sequence (P51812 whole entry): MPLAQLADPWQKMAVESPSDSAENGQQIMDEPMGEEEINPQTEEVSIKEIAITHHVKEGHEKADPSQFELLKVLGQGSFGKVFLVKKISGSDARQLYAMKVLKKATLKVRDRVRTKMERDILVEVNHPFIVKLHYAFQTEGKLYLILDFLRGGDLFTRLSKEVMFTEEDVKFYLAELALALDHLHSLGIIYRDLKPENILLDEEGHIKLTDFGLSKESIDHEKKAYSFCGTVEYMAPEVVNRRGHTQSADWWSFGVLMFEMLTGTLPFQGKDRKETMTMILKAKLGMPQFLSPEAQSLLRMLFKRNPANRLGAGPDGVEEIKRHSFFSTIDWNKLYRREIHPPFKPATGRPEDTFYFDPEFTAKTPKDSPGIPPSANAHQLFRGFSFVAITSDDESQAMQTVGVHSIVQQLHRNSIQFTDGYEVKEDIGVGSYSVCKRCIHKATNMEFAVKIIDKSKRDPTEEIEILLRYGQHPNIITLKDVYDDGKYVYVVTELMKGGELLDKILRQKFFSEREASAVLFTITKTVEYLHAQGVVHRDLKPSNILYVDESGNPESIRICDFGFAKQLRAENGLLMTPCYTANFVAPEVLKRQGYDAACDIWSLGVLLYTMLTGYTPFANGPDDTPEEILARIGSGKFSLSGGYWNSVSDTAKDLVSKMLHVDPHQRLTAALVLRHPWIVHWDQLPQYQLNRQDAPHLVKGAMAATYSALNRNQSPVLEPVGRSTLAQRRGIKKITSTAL
Serine/threonine-protein kinase PAK 4, sequence (O96013 whole entry, looked up): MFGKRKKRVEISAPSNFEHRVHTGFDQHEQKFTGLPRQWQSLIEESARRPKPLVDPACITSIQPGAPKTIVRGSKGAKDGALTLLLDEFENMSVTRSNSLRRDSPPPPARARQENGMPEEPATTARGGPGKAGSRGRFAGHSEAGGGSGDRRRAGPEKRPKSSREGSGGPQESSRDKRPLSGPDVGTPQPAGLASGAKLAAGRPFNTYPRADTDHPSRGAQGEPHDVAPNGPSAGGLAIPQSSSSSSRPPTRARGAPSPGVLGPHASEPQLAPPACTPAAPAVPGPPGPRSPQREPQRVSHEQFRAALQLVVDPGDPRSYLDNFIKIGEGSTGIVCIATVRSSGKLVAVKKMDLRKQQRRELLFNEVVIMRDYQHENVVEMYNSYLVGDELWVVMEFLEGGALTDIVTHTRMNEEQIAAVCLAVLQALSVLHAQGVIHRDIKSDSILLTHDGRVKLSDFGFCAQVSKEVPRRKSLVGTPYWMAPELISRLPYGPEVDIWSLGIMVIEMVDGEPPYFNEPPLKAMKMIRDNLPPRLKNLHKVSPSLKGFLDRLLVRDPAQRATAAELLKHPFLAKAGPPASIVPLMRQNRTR
Dual specificity mitogen-activated protein kinase kinase 1, sequence (Q02750 whole entry): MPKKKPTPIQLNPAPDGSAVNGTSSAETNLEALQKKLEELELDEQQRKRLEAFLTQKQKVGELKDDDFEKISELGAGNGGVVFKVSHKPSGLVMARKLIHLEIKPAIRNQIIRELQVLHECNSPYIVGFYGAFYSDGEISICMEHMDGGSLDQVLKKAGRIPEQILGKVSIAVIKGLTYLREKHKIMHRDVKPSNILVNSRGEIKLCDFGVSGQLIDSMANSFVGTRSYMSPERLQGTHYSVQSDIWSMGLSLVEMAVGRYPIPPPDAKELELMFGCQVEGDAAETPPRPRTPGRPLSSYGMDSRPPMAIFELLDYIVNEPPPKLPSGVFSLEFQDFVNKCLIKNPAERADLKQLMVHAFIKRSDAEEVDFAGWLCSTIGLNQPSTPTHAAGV
Death-associated protein kinase 2 (Homo sapiens), sequence (Q9UIK4 whole entry, looked up): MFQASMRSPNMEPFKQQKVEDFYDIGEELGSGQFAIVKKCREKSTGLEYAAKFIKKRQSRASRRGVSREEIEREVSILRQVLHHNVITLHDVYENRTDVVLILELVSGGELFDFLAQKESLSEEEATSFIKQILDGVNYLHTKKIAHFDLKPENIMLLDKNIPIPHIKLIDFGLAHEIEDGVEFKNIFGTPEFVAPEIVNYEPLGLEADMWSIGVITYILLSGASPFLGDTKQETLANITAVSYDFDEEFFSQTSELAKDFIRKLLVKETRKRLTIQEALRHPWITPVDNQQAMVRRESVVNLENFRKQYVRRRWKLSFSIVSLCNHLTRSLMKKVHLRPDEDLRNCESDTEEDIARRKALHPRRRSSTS

As for `C=CC(=O)Nc1cccc(C(=O)Nc2ccc(Nc3cc(-c4[nH]c(SC)nc4C)ccn3)cc2)c1`, the % of control was determined as 93% in experiment [1] (at 1 µM) and 75% in experiment [1] (at 5 µM). In turn, `Cc1cc([C@@H](C)Nc2ccccc2C(=O)O)c2nc(N3CCOCC3)cc(=O)n2c1` [AZD-6482] returned a % of control in experiment [2] of 91%. Consider `CCN(CC)CCCCNc1ncc2cc(-c3cc(OC)cc(OC)c3)c(NC(=O)NC(C)(C)C)nc2n1`, for which the % of control in experiment [3] is 100%. Consider `CC(=O)Nc1cccc(-n2c(=O)n(C3CC3)c(=O)c3c(Nc4ccc(I)cc4F)n(C)c(=O)c(C)c32)c1`, for which the Kdapp in experiment [4] was 62 nM. In experiment [5], `CC(=O)c1cc(-c2ccccc2OCC2CC2)c2ncccn12` gave a % of control of 118%. Take `CC[C@@H]1[C@H](F)C(=O)N[C@@H]1COc1nccc2cc(C(N)=O)c(OC)cc12` [ZIMLOVISERTIB]: the % of inhibition in experiment [6] was -7.9%. `N#Cc1cccc(-c2c[nH]c3ncnc(N4CCOCC4)c23)c1` displayed a % of control in experiment [7] of 100%. With `CN1Cc2nccc(-c3cn(C)nc3-c3ccc(F)cc3)c2C1=O`, the % of inhibition in experiment [8] worked out at 4%.
